Laboratory results from patent US20260234135A1, “CRYSTALLINE FORMS OR SALTS OF A DEUTERATED COMPOUND” (ALEBUND PHARMACEUTICALS (HONG KONG) LIMITED, priority 2023, published 2026).

What was measured:
[1] = tested on: rat model of hyperlipidemia induced by high cholesterol diet; test: Rat model of hyperlipidemia induced by high cholesterol diet (serum TG, NEFA); type: in vivo, Sprague-Dawley rats; settings: for Serum NEFA compared with the vehicle group / Serum TG compared with the vehicle group: 0.2 mg/kg and 0.6 mg/kg oral, after 7 days of treatment (Day 8)
From the text: 8.2.1 High cholesterol diet (ASHF4) was used to induce an animal model of hyperlipidemia in the SD rats.
8.2.2 The male SD rats were fed with high cholesterol diet (ASHF4, Dyet, China) for 14 days. On the day before the start of the administration (Day 0), the animals were divided into 5 groups based on body weights and serum indicators and were continually fed with the high-cholesterol diet. The treatment groups were orally dosed with either compound or vehicle while continuing the high-cholesterol diet for a total of 1 week. The animals were weighed daily before the treatment, and the compounds were given at 9:00-9:30 in the morning based on the body weight of the day.
8.2.3 Animal blood was collected, and serum was separated for the analysis of serum lipid indicators on the day before the treatment and at the end of the last day for the experiment.
8.2.4 Serum indicators of triglyceride (TG) and free fatty acid (NEFA) were determined by an automatic blood biochemical analyzer.

[2] = 7-day repeated oral gavage, body weights of ICR mice; type: in vivo; settings: for Weight Gain (g) compared with Day 0: n = 10
From the text: 50 male ICR mice aged 6-8 weeks; source: Laboratory Animal Business Department, Shanghai Institute of Planned Parenthood Research.
After 3 days of acclimatization, ICR mice were grouped according to their body weights. The day of grouping is designated as Day 0. […] The animals were weighed and recorded daily.

[3] = tested on: db/db type 2 diabetes model; test: Oral glucose tolerance test (OGTT) in db/db animals; type: in vivo, db/db mice; settings: for OGTT blood glucose levels at each time point compared with the vehicle group: within 120 minutes, different dosages
Procedure: At the end of the experiment, oral glucose tolerance tests were carried out on the db/db animals treated by different compounds. […] .

[4] = phase 3 clinical trials; cited from earlier work
[5] = tested on: rat model of unilateral ureteral obstruction; test: Rat model of unilateral ureteral obstruction, renal injury; settings: 0.2 mg/kg oral daily, 14 treatment days
Procedure: Housing temperature was maintained at 20-26° C. and humidity at 40%-60%. Rats were fed with a standard chow and allowed to access food and water ad libitum.
The formulation was prepared twice a week.
Vehicle or compounds were administrated by orally gavage daily. Unilateral ureteral obstruction was performed on the second day of compound treatment. Animals in model group, reference group and compound group underwent urethral ligation under isoflurane anesthesia one hour after receiving compound administration. A flank incision was cut to expose the left ureter, and a 4-0 surgical suture was used to perform two-point ligation to achieve urethral obstruction. Ureter was cut between the two ligation points. Animals in the control group were subjected to the same surgical treatment except the ligation and cut. After surgery, animals in each group continually received vehicle or compound for 12 more days, for a total of 14 treatment days.
Rats were sacrificed after 14 days' compound treatment. The obstructed kidney was weighed and collected for histology. The tissue samples were fixed with formalin, and then paraffin embedded. The embedded tissue was sectioned and stained with hematoxylin & eosin and Masson trichrome to assess kidney structure and fibrosis.
The multiple comparison was analyzed with the Kruskal-Wallis non-parameter test. […]

[6] = tested on: db/db type 2 diabetes model; test: db/db type 2 diabetes model (body weight, serum TG, random blood glucose); settings: for Serum TG levels compared with the vehicle group / Average daily body weights compared with the vehicle group: Aleglitazar 0.2 mg/kg; for Serum TG levels compared with the vehicle group: Compound 2 at different dosages; for Average daily body weights compared with the vehicle group: Day 10 to Day 15, Compound 2 0.05, 0.2, 1 mg/kg; for Level of lipid, free fatty acid and blood glucose compared with vehicle group: summary, all groups
From the text: 45 Db/db mice were evenly divided into 5 groups before the initiation of treatment based on the body weights, serum triglyceride (TG) levels, and random blood glucose levels.
All animals were weighed daily before each dosing and treated daily for 14 consecutive days.
All the data was imported into an Excel file and presented as Mean±SEM. Graphpad Prism 7.0 software was used for data statistical analysis by One-way or Two-way ANOVA, with P<0.05 as the criterion of significant differences.

[7] = tested on: diabetic nephropathy model; test: Diabetic nephropathy pharmacodynamic model (uninephrectomized db/db mice); type: in vivo, db/db: BLKS male mice
From the text: At the age of 6 weeks, db/db mice were anesthetized with 2.5% […] and subjected to uninephrectomy with removal of right kidney. Buprenorphine was applied after surgery.
11.1.2 Procedure. Two weeks after surgery, db/db mice were randomly assigned into 5 groups. Wild type mice were used for the control animals. […] Compounds were orally administrated once per day for 10 weeks.
At the 5th and 9th week after compound administration, mice were placed in metabolic cages for urine collection. Albumin level was measured for 24 hr albumin excretion calculation. At the 10th week after treatment, the animals were sacrificed for kidney dissection. The kidney was fixed in 10% neutral buffed formalin, then paraffin-embedded for histopathological analysis. Glomerulosclerosis was assessed by evaluating glomerular basement membrane, mesangial expansion, nodular sclerosis and glomerulosclerosis. Severity was graded as follows: 0: normal; 1: Glomerular basement membrane thickening: isolated glomerular basement membrane thickening and only mild, nonspecific changes by light microscopy; 2: Mesangial expansion mild (IIa) or severe (IIb): glomeruli with mild or severe mesangial expansion but without nodular sclerosis or global glomerulosclerosis in more than 50% of glomeruli; 3: Nodular sclerosis: at least one glomerulus with nodular increase in mesangial matrix; 4: Advanced diabetic glomerulosclerosis: more than 50% global glomerulosclerosis with other clinical or pathological evidence that sclerosis is attributable to diabetic nephropathy. Renal tubular injury was scored as follows: 0: no obvious lesions; 1: up to 25% involvement of tubular lesion; 2: lesion in 25% to 50% of renal tubular; 3: 50% to 75% of renal tubular lesion and grade 4: >75% tubular lesion.
Graphpad 8.0 software was used for statistical analysis. The difference between the values were analyzed with one-way ANOVA. The difference between histopathological score was analyzed with Kruskal-Wallis nonparameter test. All values were compared with the group 2.

[8] = Inter-conversion relationship (slurry competition) and form stability of free acid forms; settings: storage at RT for 1 month, XRPD
[9] = Day 8, 0.2 mg/kg oral QDx7 days
[10] = Day 8, 0.6 mg/kg oral QDx7 days
[11] = 0.2 mg/kg oral QDx7 days, Day 1, ICR mice
[12] = 0.2 mg/kg oral QDx7 days, Day 2, ICR mice
[13] = 0.2 mg/kg oral QDx7 days, Day 3, ICR mice
[14] = 0.2 mg/kg oral QDx7 days, Day 4, ICR mice
[15] = 0.2 mg/kg oral QDx7 days, Day 5, ICR mice
[16] = 0.2 mg/kg oral QDx7 days, Day 6, ICR mice
[17] = 0.2 mg/kg oral QDx7 days, Day 7, ICR mice
[18] = 1 mg/kg oral QDx7 days, Day 1, ICR mice
[19] = 1 mg/kg oral QDx7 days, Day 2, ICR mice
[20] = 1 mg/kg oral QDx7 days, Day 3, ICR mice
[21] = 1 mg/kg oral QDx7 days, Day 4, ICR mice
[22] = 1 mg/kg oral QDx7 days, Day 5, ICR mice
[23] = 1 mg/kg oral QDx7 days, Day 6, ICR mice
[24] = 1 mg/kg oral QDx7 days, Day 7, ICR mice
[25] = 0.2 mg/kg (Aleglitazar P<0.001; Compound 2 P<0.01)

CO[C@@H](Cc1ccc(OCCc2nc(-c3ccccc3)oc2C)c2ccsc12)C(=O)O [Aleglitazar, aleglitazar]
Serum NEFA compared with the vehicle group [1]: significantly reduce
Serum TG compared with the vehicle group [1]: significantly reduce
serum TG, significance compared with the first group (vehicle), One-way ANOVA [1, 9]: * (*p < 0.05)
serum TG, significance compared with the first group (vehicle), One-way ANOVA [1, 10]: **** (****p < 0.0001)
Weight Gain (g) compared with Day 0 [2, 11]: 0.48 ± 0.27 g
Weight Gain (g) compared with Day 0 [2, 12]: 1.66 ± 0.39 g
Weight Gain (g) compared with Day 0 [2, 13]: 2.62 ± 0.42 g
Weight Gain (g) compared with Day 0 [2, 14]: 3.50 ± 0.42 g
Weight Gain (g) compared with Day 0 [2, 15]: 3.92 ± 0.4 g
Weight Gain (g) compared with Day 0 [2, 16]: 4.81 ± 0.37 g
Weight Gain (g) compared with Day 0 [2, 17]: 5.39 ± 0.56 g
Weight gain, significance compared with vehicle, One-way ANOVA ([2]; 0.2 mg/kg, Day 4): * (* p < 0.05)
Daily average weight gain compared with the vehicle group ([2]; 0.2 mg/kg, Day 4 and Day 5): significantly higher
Weight gain, significance compared with vehicle, One-way ANOVA ([2]; 0.2 mg/kg, Day 5): * (* p < 0.05)
Weight Gain (g) compared with Day 0 [2, 18]: 0.5 ± 0.2 g
Weight Gain (g) compared with Day 0 [2, 19]: 1.64 ± 0.26 g
Weight Gain (g) compared with Day 0 [2, 20]: 2.61 ± 0.51 g
Weight Gain (g) compared with Day 0 [2, 21]: 3.33 ± 0.54 g
Weight Gain (g) compared with Day 0 [2, 22]: 3.86 ± 0.49 g
Weight Gain (g) compared with Day 0 [2, 23]: 4.98 ± 0.52 g
Weight Gain (g) compared with Day 0 [2, 24]: 5.34 ± 0.50 g
Daily average weight gain compared with the vehicle group ([2]; 1 mg/kg, Day 6): significantly higher
Weight gain, significance compared with vehicle, One-way ANOVA ([2]; 1 mg/kg, Day 6): * (* p < 0.05)
OGTT AUC0-120 min compared with the vehicle group [3, 25]: significantly lower
OGTT blood glucose levels at each time point compared with the vehicle group [3]: significantly reduced
Blood sugar and blood lipid levels [4]: effectively reduce blood sugar and blood lipid levels
Heart failure risk [4]: a certain degree of heart failure risk
Total score of renal focal lesions compared to the model group [5]: did not achieve statistically significant improvement
Serum TG levels compared with the vehicle group ([6]; Day 6 and Day 12): significantly lower
Random blood glucose reduction compared with the vehicle group ([6]; Day 7, 0.2 mg/kg): reached statistical significance
Average daily body weights compared with the vehicle group [6]: significantly higher
Level of lipid, free fatty acid and blood glucose compared with vehicle group [6]: significantly decreased

[2H]C([2H])(Cc1nc(-c2ccccc2)oc1C)Oc1ccc(C[C@H](OC)C(=O)O)c2sccc12 [Compound 2]
Serum NEFA compared with the vehicle group [1]: significantly reduce
Serum TG compared with the vehicle group [1]: significantly reduce
Serum NEFA compared with Aleglitazar ([1]; 0.2 mg/kg, T-test, P<0.05): significantly reduce
Serum TG compared with Aleglitazar ([1]; 0.2 mg/kg, T-test, P<0.05): significantly reduce
serum TG, significance compared with the first group (vehicle), One-way ANOVA [1, 9]: *** (***p < 0.001)
serum TG, significance compared with the first group (vehicle), One-way ANOVA [1, 10]: *** (***p < 0.001)
Weight Gain (g) compared with Day 0 [2, 11]: 0.45 ± 0.28 g
Weight Gain (g) compared with Day 0 [2, 12]: 1.42 ± 0.22 g
Weight Gain (g) compared with Day 0 [2, 13]: 2.56 ± 0.23 g
Weight Gain (g) compared with Day 0 [2, 14]: 2.96 ± 0.23 g
Weight Gain (g) compared with Day 0 [2, 15]: 3.73 ± 0.34 g
Weight Gain (g) compared with Day 0 [2, 16]: 4.66 ± 0.39 g
Weight Gain (g) compared with Day 0 [2, 17]: 5.08 ± 0.42 g
Daily weight gain compared with the vehicle group ([2]; 0.2 mg/kg, throughout the study): no significant difference
Weight Gain (g) compared with Day 0 [2, 18]: 0.4 ± 0.17 g
Weight Gain (g) compared with Day 0 [2, 19]: 1.57 ± 0.26 g
Weight Gain (g) compared with Day 0 [2, 20]: 2.71 ± 0.19 g
Weight Gain (g) compared with Day 0 [2, 21]: 3.61 ± 0.19 g
Weight Gain (g) compared with Day 0 [2, 22]: 3.96 ± 0.29 g
Weight Gain (g) compared with Day 0 [2, 23]: 4.84 ± 0.4 g
Weight Gain (g) compared with Day 0 [2, 24]: 5.44 ± 0.36 g
Weight gain, significance compared with vehicle, One-way ANOVA ([2]; 1 mg/kg, Day 4): ** (**p < 0.01)
Average daily weight gain compared with the vehicle group ([2]; 1 mg/kg, Day 4 and 5): significantly higher
Weight gain, significance compared with vehicle, One-way ANOVA ([2]; 1 mg/kg, Day 5): * (* p < 0.05)
OGTT blood glucose compared with the vehicle group ([3]; 0.05 mg/kg (Group 4), all time points): trend of decrease but did not reach statistical significance
OGTT AUC0-120 min compared with the vehicle group [3, 25]: significantly lower
OGTT AUC0-120 min compared with the vehicle group ([3]; 1 mg/kg, P<0.0001): significantly lower
OGTT AUC0-120 min compared with Aleglitazar ([3]; same dose level (0.2 mg/kg)): higher
OGTT blood glucose levels at each time point compared with the vehicle group [3]: significantly reduced
24-hour urinary albumin ([7]; 5th and 9th weeks after compound administration, 0.1, 0.3, 1 mg/kg oral once per day): significantly decreased
Glomerular damage and glomerular hypertrophy ([7]; 10 weeks treatment): suppressed the glomerular damage and ameliorate the glomerular hypertrophy
Renal tubular injury ([7]; all dosage levels): improved the tubular injury at some extend
Glomerular volume ([7]; high dose (1 mg/kg)): statistically significantly reduced
Glomerulosclerosis histopathological score ([7]; high dose (1 mg/kg)): statistically significantly reduced
Total score of renal focal lesions compared to the model group [5]: significantly improved
Serum TG, rank of effect among groups ([6]; 1 mg/kg (Group 6), Day 6 and Day 12): largest effect
statistical difference (p) of the blood glucose level between treatment group and vehicle group ([6]; 0.2 mpk, Day 0, db/db mice): p > 0.05
Serum TG levels compared with the vehicle group ([6]; Day 6 and Day 12): significantly lower
Random blood glucose reduction compared with the vehicle group ([6]; Day 7, 1 mg/kg): reached statistical significance
Average daily body weights compared with the vehicle group [6]: significantly higher
Random blood glucose lowering compared with the vehicle group ([6]; Day 14, 0.05 mg/kg): did not reach statistical significance
Random blood glucose lowering vs vehicle, compared with Day 7 ([6]; Day 14, 1 mg/kg): more pronounced effect of blood glucose lowering
Effect on lowering blood glucose compared with Aleglitazar ([6]; overall): slightly weaker effect
Level of lipid, free fatty acid and blood glucose compared with vehicle group [6]: significantly decreased

[2H]C([2H])(Cc1nc(-c2ccccc2)oc1C)Oc1ccc(C[C@H](OC)C(=O)O)c2sccc12 [free acid Form D]
Form after storage [8]: converted to free acid Form E
